According to EP4763837A1, “PHOTOCHROMIC COMPOUND, CURABLE COMPOSITION, OPTICAL ARTICLE, LENS, AND EYEGLASSES” (TOKUYAMA CORPORATION, priority 2023, dated 2025):
Where “and” joins values, the source holds several entries; their conditions need not be identical. Equal values may be shown once.

Test: Photochromic property of photochromic laminate made by coating method
Type: physicochemical
Details: for Residual ratio / Color developing density at 23°C: laminate by coating method; for Residual ratio: A96/A0 x 100 after 96 hours accelerated degradation, xenon weather meter X25; for Color developing density at 23°C: absorbance difference after 240 seconds irradiation at the maximum absorption wavelength of the same line
Outline: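 Compound at 0.25 mmol per 100 g methacrylate monomer mix, spin-coated 40 µm on a primed thiourethane lens, photocured 90 s under N2, then 110°C for 1 h. λmax and A23 measured after 240 s irradiation at 23°C; τ1/2 is time to half-fade after irradiation stops. Residual ratio A96/A0 after 96 h xenon weathering.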

Row | SMILES | Color fading half-life at 23°C [min] | Residual ratio | Color developing density at 23°C
1 | CCC1(C)c2ccccc2-c2c1c1c(c3cc(OC)c(N(C)c4ccccc4)cc23)OC(c2ccc(OC)cc2)(c2ccc(OC)cc2)C=C1 (centres unmarked) [Formula (9-1)] | 1.32 | 71% | 1.16 -
2 | CCCC1(CC)c2ccccc2-c2c1c1c(c3cc(OC)c(N4CCOCC4)cc23)OC(c2ccc(OC)cc2)(c2ccc(OC)cc2)C=C1 (centres unmarked) [Formula (14-1)] | 1.83 | 55% and 57% | –
3 | CCCCC1(CCC)c2ccccc2-c2c1c1c(c3cc(OC)c(N4CCOCC4)cc23)OC(c2ccc(OC)cc2)(c2ccc(OC)cc2)C=C1 (centres unmarked) [Formula (6-2)] | 2 | 55% and 58% | –

Next, values leading:

Row | Color fading half-life at 23°C [min] | Residual ratio | Color developing density at 23°C | SMILES
4 | 0.967 | 37% and 41% | 1.29 - and 0.70 - | CCC1(OC)c2ccccc2-c2c1c1c(c3cc(OC)c(N4CCOCC4)cc23)OC(c2ccc(OC)cc2)(c2ccc(OC)cc2)C=C1 (centres unmarked) [Formula (B), reference compound]
5 | – | 47% and 51% | – | CCCCCCCCCCCC1(C)c2ccccc2-c2c1c1c(c3cc(OC)c(N4CCOCC4)cc23)OC(c2ccc(OC)cc2)(c2ccc(OC)cc2)C=C1 (centres unmarked) [Formula (19-1)]
6 | – | 53% and 55% | – | CCCCCCC1(CC)c2ccccc2-c2c1c1c(c3cc(OC)c(N4CCOCC4)cc23)OC(c2ccc(OC)cc2)(c2ccc(OC)cc2)C=C1 (centres unmarked) [Formula (18-1)]
7 | – | 47% and 50% | 1.65 - and 0.83 - | COc1ccc(C2(c3ccc(OC)cc3)C=Cc3c4c(c5cc(N6CCOCC6)c(OC)cc5c3O2)-c2ccccc2C4(C)C)cc1 [Formula (A), reference compound]
